PubChem BioAssay (NCI)
Several values for one entry are separate records, joined by “and”; a condition that tells them apart may be missing. Equal entries are not always repeated.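 Assay format: 96-well plates, 48-hour exposure. GI50 = concentration required for 50% inhibition of growth. The concentration for full growth arrest is given as TGI.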

Assays:
Experiment in all cases: NCI anticancer screen, dose series, 48 h
NCI-H226 lung = tested on: NCI-H226 lung
SW-620 colon = tested on: SW-620 colon
SK-MEL-28 melanoma = tested on: SK-MEL-28 melanoma
IGROV1 ovarian = tested on: IGROV1 ovarian
MDA-MB-231 breast = tested on: MDA-MB-231 breast
HCT-15 colon = tested on: HCT-15 colon
EKVX NSCLC = tested on: EKVX NSCLC
A498 renal = tested on: A498 renal
SNB-19 CNS = tested on: SNB-19 CNS
OVCAR-8 ovarian = tested on: OVCAR-8 ovarian

Row | Compound | GI50 (NCI-H226 lung) | TGI (NCI-H226 lung) | GI50 (SW-620 colon) [µM] | TGI (SW-620 colon) | GI50 (SK-MEL-28 melanoma) [µM] | TGI (SK-MEL-28 melanoma) [µM] | GI50 (IGROV1 ovarian) [µM] | TGI (IGROV1 ovarian) [µM] | GI50 (MDA-MB-231 breast) [µM] | TGI (MDA-MB-231 breast) [µM] | GI50 (HCT-15 colon) | TGI (HCT-15 colon) | GI50 (EKVX NSCLC) [µM] | TGI (EKVX NSCLC) [µM] | GI50 (A498 renal) [µM] | TGI (A498 renal) [µM] | GI50 (SNB-19 CNS) [µM] | TGI (SNB-19 CNS) [µM] | GI50 (OVCAR-8 ovarian) [µM] | TGI (OVCAR-8 ovarian)
1 | CCCCCCCCCCC[C@@H](C[C@H]1OC(=O)[C@H]1CCCCCC)OC(=O)[C@@H](CC(C)C)NC=O | 2.1 µM | 7.91 µM | 4.92 | 94.1 µM | 19.8 | > 100 | 7.62 | 55.7 | 1.53 | 5.45 | 2.65 µM | 46.8 µM | 27.4 | > 100 | 4.64 | 29.9 | 5.02 | 25.4 | 2.5 | 15.7 µM
2 | CN1CCN(c2ccc3nc(-c4[nH]ncc4Nc4ncnc5c4OCCCN5)[nH]c3c2)CC1 | < 0.01 µM | 0.0573 µM | < 0.01 | 0.112 µM | 0.0161 | 0.104 | < 0.01 | 0.0707 | < 0.01 | 0.0423 | 0.0259 µM | 0.63 µM | 0.0168 | 0.183 | < 0.013 | 0.0341 | 0.0106 | 0.172 | 0.0176 | 0.593 µM
3 | O=C(c1nn(-c2ccc(Cl)cc2)cc1O)n1nc(C(F)(F)F)cc1-c1ccccc1 | 2.17 µM | > 40.7 µM | 4.51 | > 100 µM | 6.56 | > 100 | 0.921 | > 100 | > 26.3 | > 100 | 1.13 µM | > 100 µM | 2 | > 100 | 5.93 | > 73.9 | 3.98 | > 100 | 1.87 | > 100 µM
4 | CC#CC#C/C=C1\C=CC2(OC=CC2OC(C)=O)O1 (stereo not drawn) | > 100 µM and 11.1 µM | > 100 µM and 23.4 µM |  | 65.9 µM and 39.7 µM | 43.5 | > 100 |  | > 100 |  | 41.9 | 16.4 µM and 4.78 µM | 30 µM and 27.8 µM |  | > 100 |  | > 100 |  | > 100 |  | > 100 µM and 51.7 µM
5 | CCOC(=O)Cn1c(-c2nonc2NC(=O)c2ccccc2F)nc2ccccc21 | 19.5 µM | > 100 µM | 1.4 | > 100 µM | 17.9 | > 100 | 9.85 | > 100 | 28.7 | > 100 | 0.109 µM | > 100 µM | 28 | > 100 | 68 | > 100 | 5.58 | > 100 | 0.739 | > 60.1 µM
6 | COc1cc(-c2nc(-c3ccc(-c4nc5ccc(F)cc5[nH]4)cc3)no2)cc(OC)c1OC | 2.72 µM | 10.7 µM | 3.61 | 16.1 µM | 3.78 | 16 | 3.81 | 14.5 | 2.39 | 7.66 | 3.15 µM | 12.8 µM | 3.45 | 27.4 | 4.19 | 26.1 | 5.62 | > 100 | 2.36 | 7.61 µM
7 | COc1cc(OC)c(F)c(COc2cnc(Nc3cnn(CCO)c3)nc2)c1F | 0.343 µM | > 23.9 µM | 0.412 | > 100 µM | 1.85 | > 100 | 0.595 | > 100 | 1.38 | 7.64 | 0.482 µM | > 100 µM | 1.94 | > 100 | < 0.0107 | 0.138 | 0.796 | > 100 | 2.24 | > 100 µM
8 | CCCCCCCCCCCC1=NC(C)(C)CN1CC(C)O (stereo not drawn) | 13.1 µM | 28.6 µM | 1.85 | 3.91 µM | 1.75 | 3.26 | 1.89 | 4.75 | 3.82 | 13.7 | 1.95 µM | 4.75 µM | 11.2 | 25.2 | 10 | 22.8 | 12.9 | 25.8 | 8.89 | 25 µM
9 | CC[C@H]1CN(C)[C@H]2Cc3c([nH]c4ccccc34)C(=O)C[C@H]1C2C(=O)OC (stereo partly drawn) |  | > 100 µM |  | > 100 µM |  | > 100 |  | > 100 |  | > 100 |  | > 100 µM |  | > 100 |  | > 100 |  | > 100 |  | > 100 µM
10 | C[C@@H](Oc1cc(-n2cnc3ccc(OCC4CCN(C)CC4)cc32)sc1C(N)=O)c1ccccc1Cl | 0.674 µM | 4.81 µM | 0.0267 | 3.27 µM | 0.165 | 4.62 | 0.129 | 4.9 | 0.0924 | 2.15 | 0.0998 µM | 3.39 µM | 0.158 | 4.96 | 0.0927 | 0.713 | 0.177 | 5.01 | 0.0793 | 3.11 µM
11 | NC(=O)c1sc(-n2cnc3ccc(C(F)(F)F)cc32)cc1OCc1ccccc1Br | 1.94 µM | 18.6 µM | 0.749 | > 25 µM | 4.82 | > 25 | 2.22 | > 25 | 1.62 | 19.3 | 1.42 µM | > 25 µM | > 21.3 | > 25 | 2.24 | 16.2 | 2.79 | > 25 | 1.78 | > 25 µM
12 | COc1cc2cnc(-c3ccccc3)cc2cc1OC |  | 45.8 µM |  | > 100 µM |  | > 100 |  | 49.5 |  | 48.2 |  | 46.5 µM |  | 34.3 |  | 21.2 |  | > 100 |  | > 100 µM
13 | Nc1nccc2c1ccn2-c1cccc(NC(=O)c2ccc(N3CCOCC3)c(C(F)(F)F)c2)c1 | 1.74 µM | 18.1 µM | 0.49 | > 50 µM | 1.06 | > 47.5 | 0.869 | > 46.5 | 0.874 | 2.86 | 0.443 µM | > 22.7 µM | 1.99 | > 50 | 0.304 | 2.05 | 1.58 | > 50 | 1.34 | 10.3 µM
